Paper PMC3462190, “A Peptidic Unconjugated GRP78/BiP Ligand Modulates the Unfolded Protein Response and Induces Prostate Cancer Cell Death” (PLoS ONE, 2012)
Where no end group is shown, it is not given here.

B1: Bag-1: cochaperone Bag-1, HA-tagged (pcDNA3.1-HA-Bag-1), or endogenous (protein)
chain: TPLSALGIQDGCRVMLIGKKNSPQEEVELKKLKHLEKSVEKIADQLEELNKELTGIQQGFLPKDLQAE
modifications: left off: HA, end not stated, kept
notes: cochaperone Bag-1, HA-tagged (pcDNA3.1-HA-Bag-1), or endogenous

System: GRP78/BiP
Assay: GST pull-down with GRP78/BiP
Format: binding
Conditions: for interaction with GRP78/BiP: GST-fused protein/peptide, 22Rv.1 cell lysate, Western blot
Procedure: Expression of GST fusion proteins for GST-pull-down experiments were performed essentially as described previously.
Figure 1 Bag-1 proteins interact with the molecular chaperone GRP78/BiP. A. The Bag-1 family of proteins binds GRP78/BiP. GST pull-down assay was performed incubating 5 µg each of GST-fused Bag-1 proteins with 400 µg of 22Rv.1 cell lysate. Western blotting with a specific antibodiy against GRP78/BiP was used to detect the binding and an anti-GST antibody was used to determine the amount of bacterially purified protein employed in the assay. B. Bag-1 and GRP78 interact in vivo. GRP78 was immunoprecipitated with an anti-GRP78/BiP antibody or IgG as control in 22Rv.1 cells. Western blotting with an anti-Bag-1 and anti-GRP78 antibody was performed to determine GRP78-Bag-1 interaction. C. Bag-1 and GRP78/BiP show a perinuclear colocalization. Confocal microscopic analyses were carried out in 22Rv.1 cells that have been paraformaldehyde-fixed and stained with a Bag-1 antibody to detect Bag-1 (green channel) and a GRP78/BiP specific antibody to detect GRP78/BiP (red channel). The orange staining in the merge of the two channels indicates the degree of co-localization of the two proteins. All images (40X) were acquired with a Leica TCS SPE confocal microscope (Leica Microsystems; Scale bars indicate 25 µm). D. Diagrammatic representation of the domains of GRP78. E. Bag-1 binds to multiple sites on GRP78. GST-pull down assay performed incubating 500 µg lysate of HEK-293 cells transfected with an HA-tagged Bag-1 and 10 µg GST-fused GRP78 full length and its ATPase and substrate binding domain (SBD). Western blot analysis was carried out using an HA antibody to detect the Bag-1-tagged protein.
Figure 5 An N-terminal unfolded fragment of the Bag-1 peptide is sufficient to reduce tumor cell growth. A. Schematic diagram of the Bag-1 peptide and its deletion mutants. The ubiquitin-like domain is represented in blue and the BAG domain in red. The numbers refer to the amino acid positions of the different domains. The amino acid residues are numbered following the numbering for Bag-1L. B. Prediction of the secondary structure of the Bag-1 peptide, showing an N-terminal β-hairpin from the ubiquitin-like domain (blue) and a C-terminal α-helix from the BAG domain (red). C. Normalized circular dichroism spectra of the Bag-1 peptides. 30 µM of the Bag-1 peptide were measured in 20 mM KHPO4 buffer, pH 6.8 (black line). […] 12 µM of the N-term peptide (green line) and 11 µM of C-term (blue line) were measured under the same conditions. […] Cells transfected with the indicated constructs were selected in medium containing neomycin and the colonies formed were quantified. […] Tumor size was measured once per week using a caliper and expressed as tumor volume in mm^3. […]

Molecule | interaction with GRP78/BiP | interaction with full length GRP78/BiP (10 µg GST-fused GRP78 full length, lysate of HEK-293 cells expressing HA-tagged Bag-1)
ΔUbi peptide: Bag-1 peptide lacking the ubiquitin-like domain portion (Bag-1L 220–269) (KKNSPQEEVELKKLKHLEKSVEKIADQLEELNKELTGIQQGFLPKDLQAE; not fully specified) | abrogated the binding to GRP78 | 
C-terminal peptide: 28 C-terminal fragment of the Bag-1 peptide (Bag-1L 241–269) (EKIADQLEELNKELTGIQQGFLPKDLQAE; not fully specified) | not the C-terminal peptide bound to GRP78/BiP | 
N-terminal peptide: N-terminal 40 residues of the Bag-1 peptide (Bag-1L 202–241) (TPLSALGIQDGCRVMLIGKKNSPQEEVELKKLKHLEKSVE; not fully specified) | bound to GRP78/BiP | 
B1 |  | interacted not only with the full length GRP78/BiP
